Reference: patent publication US5932548A, “Lysine containing peptides for treatment of heart disease” (priority 1998, dated 1999)
Non-standard residues stand in square brackets, D forms with d. Residues, ends and D or L forms follow the SMILES beside them. dTrp(2-Me) = Cc1[nH]c2ccccc2c1C[C@@H](N)C(=O)O

Legend:
isolated rat hearts = assay: coronary perfusion pressure (CPP) in isolated rat hearts; conditions: versus saline treatment (no peptide)
Protocol: (§1) In the examples that follow, data is presented for the most preferred lysine containing peptides of the invention. The GH releasing effect was measured in rats according to the method described by R. Deghenghi et al., Life Sci. 54: 1321-1328 (1994). The cardiac protection of the instant peptides has been measured essentially as described in the above cited publication by V. De Gennaro Colonna et al., Europ. J. Pharmacol. 334:201-207 (1997).
The effects on coronary perfusion pressure ("CPP") in isolated rat hearts have been measured using Hexarelin (His-D-Mrp-Ala-Trp-D-Phe-Lys-NH2) as reference compound and compared to that for the GH antagonist His-D-Mrp-D-Lys-Trp-D-Phe-Lys-NH2. An increase of CPP over a saline treatment (i.e., no peptide) of 110±10% was found for Hexarelin, but an increase of 160±25% was found for the antagonist.

[1] = system: growth hormone deficient rats; conditions: De Gennaro Colonna et al. 1997; cited from earlier work
rats = assay: GH releasing effect in rats; assay type: in vivo, rat
Protocol: as §1

Cc1[nH]c2ccccc2c1C[C@@H](NC(=O)[C@@H](N)Cc1cnc[nH]1)C(=O)N[C@@H](C)C(=O)N[C@@H](Cc1c[nH]c2ccccc12)C(=O)N[C@H](Cc1ccccc1)C(=O)N[C@@H](CCCCN)C(N)=O [Hexarelin, His-D-Mrp-Ala-Trp-D-Phe-Lys-NH2] (H-H[dTrp(2-Me)]AW[dF]K-NH2)
increase of CPP over a saline treatment (isolated rat hearts): 110±10%
effect on cardiac dysfunction [1]: reverse the worsening of cardiac dysfunction

His-D-Mrp-D-Lys-Trp-D-Phe-Lys-NH2
increase of CPP over a saline treatment (isolated rat hearts): 160±25%
GH liberation (rats): does not liberate GH
